From article PMC10902181 (Journal of neurochemistry, 2023)

Key:
WT GluN1/GluN2A [1] = biological target: T1, WT GluN1/GluN2A (Homo sapiens, UniProt Q05586+Q12879); test: TEVC current recordings from Xenopus oocytes, channel blocker inhibition; assay type: cell-based; details: WT GluN1/WT 2A, 100 μM blocker, −40 mV
GluN1-G620R/GluN2A = GluN1-G620R/GluN2A (Homo sapiens, UniProt Q05586+Q12879, G620R); test: as above; assay type: cell-based; details: for % inhibition: 1-G620R/2A, 100 μM blocker, −40 mV
GluN1/GluN2A-L611Q [2] = biological target: T2, GluN1/GluN2A-L611Q (Homo sapiens, UniProt Q05586+Q12879, L611Q); test: as above; assay type: cell-based; details: for % inhibition: 2A-L611Q, 100 μM blocker, −40 mV
[3] = biological target: GluN2A-N614S-containing NMDARs (Homo sapiens, UniProt Q05586+Q12879, N614S); test: as above; assay type: cell-based; details: for % inhibition: 2A-N614S, 100 μM blocker, −40 mV
[4] = biological target: GluN2A-N615K-containing NMDARs (Homo sapiens, UniProt Q05586+Q12879, N615K); test: as above; assay type: cell-based; details: 2A-N615K, 100 μM blocker, −40 mV
WT GluN1/GluN2B [5] = biological target: T3, WT GluN1/GluN2B (Homo sapiens, UniProt Q05586+Q13224); test: as above; assay type: cell-based; details: WT GluN1/WT 2B, 100 μM blocker, −40 mV
[6] = biological target: GluN2B-W607C-containing NMDARs (Homo sapiens, UniProt Q05586+Q13224, W607C); test: as above; assay type: cell-based; details: 2B-W607C, 100 μM blocker, −40 mV
[7] = biological target: GluN2B-G611V-containing NMDARs (Homo sapiens, UniProt Q05586+Q13224, G611V); test: as above; assay type: cell-based; details: 2B-G611V, 100 μM blocker, −40 mV
GluN1/GluN2B-N615I = GluN1/GluN2B-N615I (Homo sapiens, UniProt Q05586+Q13224, N615I); test: as above; assay type: cell-based; details: for % inhibition: 2B-N615I, 100 μM blocker, −40 mV
GluN1/GluN2B-N615K = GluN1/GluN2B-N615K (Homo sapiens, UniProt Q05586+Q13224, N615K); test: as above; assay type: cell-based; details: 2B-N615K, 100 μM blocker, −40 mV
[8] = biological target: GluN2B-N616K-containing NMDARs (Homo sapiens, UniProt Q05586+Q13224, N616K); test: as above; assay type: cell-based; details: 2B-N616K, 100 μM blocker, −40 mV
[9] = biological target: GluN2B-V618G-containing NMDARs (Homo sapiens, UniProt Q05586+Q13224, V618G); test: as above; assay type: cell-based; details: 2B-V618G, 100 μM blocker, −40 mV
[10] = biological target: GluN2B-V620M-containing NMDARs (Homo sapiens, UniProt Q05586+Q13224, V620M); test: as above; assay type: cell-based; details: 2B-V620M, 100 μM blocker, −40 mV
GluN1/GluN2B-V620M = GluN1/GluN2B-V620M (Homo sapiens, UniProt Q05586+Q13224, V620M); test: Current-voltage curves; details: 2B-V620M
WT GluN1/GluN2A [11] = biological target: T1, WT GluN1/GluN2A; test: Current-voltage curves; details: WT 2A, 1 mM Mg^2+ alone
GluN1/GluN2A-L611Q [12] = biological target: T2, GluN1/GluN2A-L611Q; test: Current-voltage curves; details: 2A-L611Q, 1 mM Mg^2+ alone
WT GluN1/GluN2B [13] = biological target: T3, WT GluN1/GluN2B; test: Current-voltage curves; details: WT 2B, 1 mM Mg^2+ alone

`CC12CC3CC(C)(C1)CC(N)(C3)C2` [memantine] was tested, and the “% inhibition” value (WT GluN1/GluN2A [1]; w/ 1 mM Mg^2+) was 89 ± 1.3% (30), the “% inhibition” value (WT GluN1/GluN2A [1]; w/o Mg^2+) was 94 ± 1.2% (15) and the “% inhibition” value (GluN1-G620R/GluN2A; w/ 1 mM Mg^2+) was 98 ± 0.4 (8) %. The “% inhibition” value (GluN1-G620R/GluN2A; w/o Mg^2+) was 96 ± 1.3% (8), the “increased potency in 1 mM Mg^2+ compared to the same variant in the absence of Mg^2+” value (GluN1-G620R/GluN2A; GluN1-G620R) was 2.4 fold and the “enhanced potency in comparison to WT NMDARs” value (GluN1-G620R/GluN2A; GluN1-G620R, absence of Mg^2+) was 2.7 fold. The “enhanced potency compared to the WT receptors” value (GluN1-G620R/GluN2A; GluN1-G620R, presence of 1 mM Mg^2+) was 17 fold, the “% inhibition” value (GluN1/GluN2A-L611Q [2]; w/ 1 mM Mg^2+) was 94 ± 0.6% (9) and the “% inhibition” value (GluN1/GluN2A-L611Q [2]; w/o Mg^2+) was 87 ± 2.1% (12). For the same molecule, the “increased potency in 1 mM Mg^2+ compared to the same variant in the absence of Mg^2+” value (GluN1/GluN2A-L611Q [2]; GluN2A-L611Q) was 3.1 fold, the “enhanced potency compared to the WT receptors” value (GluN1/GluN2A-L611Q [2]; GluN2A-L611Q, presence of 1 mM Mg^2+) was 3.7 fold and the “% inhibition” value ([3]; w/ 1 mM Mg^2+) was 25 ± 6.1% (10) ^*^¥. The “% inhibition” value ([3]; w/o Mg^2+) was 60 ± 4.1% (9)^¥, the “reduced sensitivity compared to the WT receptors” value ([3]; GluN2A-N614S, presence of 1 mM Mg^2+) was 9 fold and the “% inhibition” value ([4]; w/ 1 mM Mg^2+) was 81 ± 1.6% (8) ^*^¥. For the same molecule, the “% inhibition” value ([4]; w/o Mg^2+) was 90 ± 2.5% (7), the “% inhibition” value (WT GluN1/GluN2B [5]; w/ 1 mM Mg^2+) was 93 ± 0.8% (26) and the “% inhibition” value (WT GluN1/GluN2B [5]; w/o Mg^2+) was 97 ± 1.1% (18). The “% inhibition” value ([6]; w/ 1 mM Mg^2+) was 92 ± 2.8% (11), the “% inhibition” value ([6]; w/o Mg^2+) was 91 ± 2.0% (10) and the “% inhibition” value ([7]; w/ 1 mM Mg^2+) was 97 ± 1.2% (14). The “% inhibition” value ([7]; w/o Mg^2+) was 95 ± 1.4% (10), the “% inhibition” value (GluN1/GluN2B-N615I; w/ 1 mM Mg^2+) was 98 ± 0.7% (13) and the “% inhibition” value (GluN1/GluN2B-N615I; w/o Mg^2+) was 96 ± 1.1% (11). The “enhanced potency in comparison to WT NMDARs” value (GluN1/GluN2B-N615I; GluN2B-N615I, absence of Mg^2+) was 4.3 fold, the “enhanced potency compared to the WT receptors” value (GluN1/GluN2B-N615I; GluN2B-N615I, presence of 1 mM Mg^2+) was 7.2 fold and the “% inhibition” value (GluN1/GluN2B-N615K; w/ 1 mM Mg^2+) was 12 ± 1.9% (21) ^*^¥. For the same molecule, the “% inhibition” value (GluN1/GluN2B-N615K; w/o Mg^2+) was 22 ± 2.5% (14)^¥, the “% inhibition” value ([8]; w/ 1 mM Mg^2+) was 88 ± 1.6% (24)^¥ and the “% inhibition” value ([8]; w/o Mg^2+) was 93 ± 1.8% (7). The “% inhibition” value ([9]; w/ 1 mM Mg^2+) was 87 ± 2.1% (14)^¥, the “% inhibition” value ([9]; w/o Mg^2+) was 85 ± 1.5% (16)^¥ and the “% inhibition” value ([10]; w/ 1 mM Mg^2+) was 95 ± 0.7% (7). The “% inhibition” value ([10]; w/o Mg^2+) was 96 ± 0.7% (8), the “z δ (apparent, combined block)” value (GluN1/GluN2B-V620M; 1 mM Mg^2+ + 0.3 μM memantine) was 1.54 and the “z δ (apparent, combined block)” value (GluN1/GluN2B-V620M; 1 mM Mg^2+ + 1.0 μM memantine) was 1.52. For the same molecule, the “z δ (apparent, combined block)” value (GluN1/GluN2B-V620M; 1 mM Mg^2+ + 3.0 μM memantine) was 1.38 and the “z δ (apparent, combined block)” value (GluN1/GluN2B-V620M; 1 mM Mg^2+ + 10 μM memantine) was 1.28.

For `[Mg+2]` [Mg^2+], the “z δ” value (WT GluN1/GluN2A [11]) was 1.97, the Kd (WT GluN1/GluN2A [11]; read-out: KD, 0 mV) was 1520 µM and the “z δ” value (GluN1/GluN2A-L611Q [12]) was 1.21. For the same molecule, the Kd (GluN1/GluN2A-L611Q [12]; read-out: KD, 0 mV) was 13000 µM, the “z δ” value (WT GluN1/GluN2B [13]) was 1.96 and the Kd (WT GluN1/GluN2B [13]; read-out: KD, 0 mV) was 1830 µM. For the same molecule, the “z δ” value (GluN1/GluN2B-V620M; 1 mM Mg^2+ alone) was 1.47 and the Kd (GluN1/GluN2B-V620M; read-out: KD, 0 mV, 1 mM Mg^2+ alone) was 3930 µM.
